Source: ChEMBL document CHEMBL3868598, “Synthesis, structure-activity relationship and molecular docking of 3-oxoaurones and 3-thioaurones as acetylcholinesterase and butyrylcholinesterase inhibitors” (Bioorg Med Chem, 2017)

Assays:
Acetylcholinesterase = Acetylcholinesterase (Homo sapiens, UniProt P22303); experiment: Inhibition of acetylcholinesterase (unknown origin) using acetylthiocholine iodide as substrate incubated for 10 mins followed by substrate addition measured after 20 mins by UV-Vis spectrophotometric analysis
Cholinesterase = Cholinesterase (Homo sapiens, UniProt P06276); experiment: Inhibition of butyrylcholinesterase (unknown origin) using butyrylthiocholine chloride as substrate incubated for 10 mins followed by substrate addition measured after 20 mins by UV-Vis spectrophotometric analysis
Cholinesterase, sequence (P06276 whole entry): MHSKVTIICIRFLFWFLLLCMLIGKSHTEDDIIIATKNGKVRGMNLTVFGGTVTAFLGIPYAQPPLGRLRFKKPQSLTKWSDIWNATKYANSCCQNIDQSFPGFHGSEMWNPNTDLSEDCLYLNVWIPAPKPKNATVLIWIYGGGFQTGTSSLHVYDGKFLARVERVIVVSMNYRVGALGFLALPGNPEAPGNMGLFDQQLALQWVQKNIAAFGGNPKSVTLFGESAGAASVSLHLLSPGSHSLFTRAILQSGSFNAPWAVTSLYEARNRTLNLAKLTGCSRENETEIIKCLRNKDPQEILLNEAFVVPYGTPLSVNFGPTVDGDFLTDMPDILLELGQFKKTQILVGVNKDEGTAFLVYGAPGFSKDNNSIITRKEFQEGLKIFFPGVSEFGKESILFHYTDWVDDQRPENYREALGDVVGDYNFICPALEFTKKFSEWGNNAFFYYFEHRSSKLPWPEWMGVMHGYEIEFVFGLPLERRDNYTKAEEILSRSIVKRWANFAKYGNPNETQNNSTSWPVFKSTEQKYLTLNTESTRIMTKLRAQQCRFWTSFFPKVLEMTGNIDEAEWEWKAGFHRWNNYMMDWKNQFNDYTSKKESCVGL

Acetylcholinesterase, sequence (P22303 whole entry): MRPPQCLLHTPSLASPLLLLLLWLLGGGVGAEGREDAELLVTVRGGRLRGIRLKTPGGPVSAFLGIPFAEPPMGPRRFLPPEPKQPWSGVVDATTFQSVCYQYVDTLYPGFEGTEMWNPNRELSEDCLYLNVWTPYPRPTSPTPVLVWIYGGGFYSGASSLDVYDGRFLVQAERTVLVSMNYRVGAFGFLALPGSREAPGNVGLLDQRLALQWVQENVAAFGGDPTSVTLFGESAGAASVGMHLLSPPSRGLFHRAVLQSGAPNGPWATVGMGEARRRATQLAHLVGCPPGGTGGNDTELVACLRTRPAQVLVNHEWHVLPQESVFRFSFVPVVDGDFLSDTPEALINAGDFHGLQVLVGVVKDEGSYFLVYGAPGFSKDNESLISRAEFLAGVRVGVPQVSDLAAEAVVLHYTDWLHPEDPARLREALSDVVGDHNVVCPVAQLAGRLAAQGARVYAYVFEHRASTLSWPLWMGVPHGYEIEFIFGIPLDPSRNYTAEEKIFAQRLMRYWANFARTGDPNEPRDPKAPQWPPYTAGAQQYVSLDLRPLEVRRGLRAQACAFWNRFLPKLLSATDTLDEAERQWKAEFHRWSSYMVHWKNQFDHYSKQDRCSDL

## CC(C)Cc1ccc(/C=C2\Oc3ccccc3C2=O)cc1
Acetylcholinesterase
  IC50: 980 nM
Cholinesterase
  IC50: 1020 nM

## S=C1/C(=C/c2ccccc2)Oc2ccccc21
Acetylcholinesterase
  IC50: 6390 nM

## Fc1ccc(/C=C2\Oc3ccccc3C2=S)cc1
Cholinesterase
  IC50: 5270 nM

## COc1ccc(/C=C2\Oc3ccccc3C2=O)cc1 [4'-METHOXY-AURONE]
Acetylcholinesterase
  IC50: 1260 nM
